Reference: patent publication US8551991B2, “1,2,3,4-tetrahydroquinoxaline derivative having glucocorticoid receptor binding activity” (Santen Pharmaceutical Co., Ltd., priority 2006, dated 2013)

Biological target: T1, Recombinant human GR (Homo sapiens, UniProt P04150)
T1 construct: purchased Invitrogen P2816
T1 sequence (P04150 1-777): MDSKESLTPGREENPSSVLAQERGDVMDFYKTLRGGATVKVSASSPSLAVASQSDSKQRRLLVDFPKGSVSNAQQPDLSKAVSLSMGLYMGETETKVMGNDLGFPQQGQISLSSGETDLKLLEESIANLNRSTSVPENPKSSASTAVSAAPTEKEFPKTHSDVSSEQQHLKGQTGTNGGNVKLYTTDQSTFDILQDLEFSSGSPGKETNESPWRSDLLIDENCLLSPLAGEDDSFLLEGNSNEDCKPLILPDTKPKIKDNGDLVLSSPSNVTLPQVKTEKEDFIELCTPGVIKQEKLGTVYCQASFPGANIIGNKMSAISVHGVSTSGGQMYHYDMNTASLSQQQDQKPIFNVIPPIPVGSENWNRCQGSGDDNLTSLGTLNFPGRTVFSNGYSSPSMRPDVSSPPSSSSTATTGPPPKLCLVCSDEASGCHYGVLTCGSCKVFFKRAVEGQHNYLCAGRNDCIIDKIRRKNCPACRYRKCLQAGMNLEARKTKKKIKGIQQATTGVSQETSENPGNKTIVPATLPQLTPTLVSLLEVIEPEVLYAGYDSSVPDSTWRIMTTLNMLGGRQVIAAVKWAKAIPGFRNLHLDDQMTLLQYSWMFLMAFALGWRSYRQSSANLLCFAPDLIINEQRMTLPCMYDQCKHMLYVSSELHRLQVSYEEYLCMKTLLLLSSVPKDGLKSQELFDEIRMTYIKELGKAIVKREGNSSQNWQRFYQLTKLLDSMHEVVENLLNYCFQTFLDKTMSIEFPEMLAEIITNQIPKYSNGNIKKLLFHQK
Assay: GR competitor assay by fluorescence polarization (binding activity to glucocorticoid receptor)
Conditions: 20 μM test compound solution, 25 μL per well plus 12.5 μL each of 4×GS1 and 4×GR solution; Fluormone GS1 ligand; positive control 2 mM dexamethasone; read-out: GR Binding ratio (%)
Procedure: 1. Evaluation Test for Binding Activity to Glucocorticoid Receptor (Hereinafter Referred to as “GR”)
In order to evaluate a binding activity to GR, a receptor competitor assay was carried out by a fluorescence polarization method. In the assay, a GR competitor assay kit (manufactured by Invitrogen, cat No. P2816) was used, and a procedure was carried out according to the protocol attached to the kit. Hereinafter, the specific method will be described.
GR screening buffer: A buffer containing 10 mM potassium phosphate (pH 7.4), 20 mM sodium molybdate (Na2MoO4), 0.1 mM ethylene diamine tetraacetic acid (EDTA), 5 mM dithiothreitol (DTT), 0.1 mM stabilizing peptide and 2% dimethylsulfoxide was prepared.
4×GS1 solution: Fluormone™ GS1, which is a fluorescent glucocorticoid ligand, was diluted with GR screening buffer, whereby a 4 nM solution was prepared.
4×GR solution: Recombinant human GR was diluted with GR screening buffer, whereby a 16 nM solution was prepared.
After a test compound was dissolved in dimethylsulfoxide, the resulting solution was diluted with GR screening buffer, whereby a 20 μM test compound solution was prepared.
1) The test compound solution was added in an amount of 25 μL into each well of a 96-well plate, and then, 4×GS1 solution and 4×GR solution were added in an amount of 12.5 μL into each well, respectively.
2) The plate was incubated in a dark place at room temperature for 2 to 4 hours.
3) By using a multimode plate reader, Analyst™ HT (manufactured by LJL Biosystems), fluorescence polarization of each well was measured. As the blank, a well containing GR screening buffer in place of the test compound and 4×GS1 solution was used.
4) The same procedure as that in the above 1) to 3) was carried out except that GR screening buffer was used in place of the test compound solution, and the obtained result was taken as the negative control.
5) The same procedure as that in the above 1) to 3) was carried out except that 2 mM dexamethasone was used in place of the test compound solution, and the obtained result was taken as the positive control.
A GR binding ratio (%) was calculated from the following equation.
GR binding ratio (%)=100×[1-(fluorescence polarization of test compound solution-fluorescence polarization of positive control solution)/(fluorescence polarization of negative control solution—fluorescence polarization of positive control solution)]

Question: How did the inhibition at 10 µM turn out when `COc1ccc(C(F)(F)F)cc1-c1ccc2c(c1COc1cc(F)ccc1C)N(C)C(=O)C(C)(C)N2` [Compound 6-19] was run?
Answer: The inhibition at 10 µM was 100%.

Question: For `C=CC(=O)Oc1ccc(-c2ccc3c(c2COc2cc(F)ccc2C)N(C)C(=O)C(C)(C)N3)c(OC)c1` [Compound 14-33], which inhibition at 10 µM is on record?
Answer: Its inhibition at 10 µM is 100%.

Question: How did the inhibition at 10 µM turn out when `COc1cc(O)ccc1-c1ccc2c(c1COc1cc(F)ccc1C)N(C)C(=O)C(C)(C)N2` [Compound 11, 8-(5-fluoro-2-methylphenoxymethyl)-7-(4-hydroxy-2-methoxyphenyl)-1,3,3-trimethyl-3,4-dihydro-1H-quinoxalin-2-one] was run?
Answer: The inhibition at 10 µM was 100%.

Question: How did the inhibition at 10 µM turn out when `COc1ccc(CO)cc1-c1ccc2c(c1COc1cc(F)ccc1C)N(C)C(=O)C(C)(C)N2` [Compound 9-1, 8-(5-Fluoro-2-methylphenoxymethyl)-7-(5-hydroxymethyl-2-methoxyphenyl)-1,3,3-trimethyl-3,4-dihydro-1H-quinoxalin-2-one] was run?
Answer: The inhibition at 10 µM was 100%.

Question: How did the inhibition at 10 µM turn out when `COc1ccc(F)cc1-c1ccc2c(c1COC(=O)c1ccc(C)cc1)NC(=O)C(C)(C)N2` [Compound 2-2] was run?
Answer: The inhibition at 10 µM was 99%.

Question: For `COc1cc(OC(=O)N(C)C)ccc1-c1ccc2c(c1COc1cc(F)ccc1C)N(C)C(=O)C(C)(C)N2` [Compound 18-2, 7-(4-Dimethylaminocarbonyloxy-2-methoxyphenyl)-8-(5-fluoro-2-methylphenoxymethyl)-1,3,3-trimethyl-3,4-dihydro-1H-quinoxalin-2-one], which inhibition at 10 µM is on record?
Answer: Its inhibition at 10 µM is 99%.

Question: Which inhibition at 10 µM does the source give for `COc1cc(OC(=O)N2CCOCC2)ccc1-c1ccc2c(c1COc1cc(F)ccc1C)N(C)C(=O)C(C)(C)N2` [Compound 18-1, 8-(5-Fluoro-2-methylphenoxymethyl)-7-[2-methoxy-4-(morpholin-4-ylcarbonyloxy)phenyl]-1,3,3-trimethyl-3,4-dihydro-1H-quinoxalin-2-one] here?
Answer: Its inhibition at 10 µM is 100%.

Question: With `COc1cc(NC(=O)Oc2ccccc2)ccc1-c1ccc2c(c1COc1cc(F)ccc1C)N(C)C(=O)C(C)(C)N2` [Compound 14-37] as the compound, how does the inhibition at 10 µM read?
Answer: Its inhibition at 10 µM is 93%.

Question: `COc1ccccc1NCc1c(-c2ccc(OC(=O)c3cccnc3C)cc2OC)ccc2c1N(C)C(=O)C(C)(C)N2` [Compound 21-12, 7-[2-Methoxy-4-(2-methylpyridin-3-ylcarbonyloxy)phenyl]-8-(2-methoxyphenylaminomethyl)-1,3,3-trimethyl-3,4-dihydro-1H-quinoxalin-2-one] was tested. Which inhibition at 10 µM did it give?
Answer: Its inhibition at 10 µM is 100%.

Question: How did the inhibition at 10 µM turn out when `COc1cc(OC(=O)c2ccc(C)nc2)ccc1-c1ccc2c(c1COc1cc(F)ccc1C)N(C)C(=O)C(C)(C)N2` [Compound 15-9] was run?
Answer: Its inhibition at 10 µM is 100%.

Question: Which inhibition at 10 µM does the source give for `COc1ccc(C(=O)Oc2ccc(-c3ccc4c(c3COc3cc(F)ccc3C)N(C)C(=O)C(C)(C)N4)c(OC)c2)cc1` [Compound 14-30] here?
Answer: The inhibition at 10 µM was 100%.

Question: With `COc1ccc(Cl)cc1-c1ccc2c(c1COc1ccccc1CCO)N(C)C(=O)C(C)(C)N2` [Compound 3-10] as the compound, how does the inhibition at 10 µM read?
Answer: The inhibition at 10 µM was 100%.

Question: Which inhibition at 10 µM does the source give for `COc1cc(N)ccc1-c1ccc2c(c1COc1cc(F)ccc1C)N(C)C(=O)C(C)(C)N2` [Compound 8-2] here?
Answer: Its inhibition at 10 µM is 100%.

Question: Which inhibition at 10 µM does the source give for `COc1ccccc1NCc1c(-c2ccc(F)cc2OC)ccc2c1N(C)C(=O)C(C)(C)N2` [Compound 4-11] here?
Answer: The inhibition at 10 µM was 100%.

Question: With `COc1cc(F)ccc1-c1ccc2c(c1COC(=O)c1ccc(Br)s1)N(C)C(=O)C(C)(C)N2` [Compound 2-16] as the compound, how does the inhibition at 10 µM read?
Answer: The inhibition at 10 µM was 100%.

Question: `COc1ccc(Cl)cc1-c1ccc2c(c1CNc1cc(F)ccc1C)N(C)C(=O)C(C)(C)N2` [Compound 4-7] was tested. Which inhibition at 10 µM did it give?
Answer: The inhibition at 10 µM was 100%.

Question: `COc1cc(OC(=O)c2ccccc2SC)ccc1-c1ccc2c(c1COc1cc(F)ccc1C)N(C)C(=O)C(C)(C)N2` [Compound 15-6] was tested. Which inhibition at 10 µM did it give?
Answer: The inhibition at 10 µM was 100%.

Question: `COc1cc(F)ccc1-c1ccc2c(c1COC(=O)c1ccc(C)s1)N(C)C(=O)C(C)(C)N2` [Compound 2-9] was tested. Which inhibition at 10 µM did it give?
Answer: The inhibition at 10 µM was 99%.

Question: With `COc1ccccc1-c1ccc2c(c1COc1cc(F)ccc1C)N(C)C(=O)C(C)(C)N2` [Compound 6-8] as the compound, how does the inhibition at 10 µM read?
Answer: The inhibition at 10 µM was 98%.

Question: `COc1ccc(F)cc1-c1ccc2c(c1CNc1ccccc1)N(C)C(=O)C(C)(C)N2` [Compound 5-14] was tested. Which inhibition at 10 µM did it give?
Answer: Its inhibition at 10 µM is 100%.

Question: `C=CCN1C(=O)C(C)(C)Nc2ccc(-c3cc(F)ccc3OC)c(COC(=O)c3ccc(C)cc3)c21` [Compound 5-19] was tested. Which inhibition at 10 µM did it give?
Answer: The inhibition at 10 µM was 100%.

Question: With `COc1cc(F)ccc1-c1ccc2c(c1COc1cc(Cl)ccc1C)N(C)C(=O)C(C)(C)N2` [Compound 3-15] as the compound, how does the inhibition at 10 µM read?
Answer: Its inhibition at 10 µM is 100%.

Question: With `CCCC(=O)Oc1ccc(-c2ccc3c(c2CNc2ccccc2OC)N(C)C(=O)C(C)(C)N3)c(OC)c1` [Compound 21-5, 7-(4-Butyryloxy-2-methoxyphenyl)-8-(2-methoxyphenylaminomethyl)-1,3,3-trimethyl-3,4-dihydro-1H-quinoxalin-2-one] as the compound, how does the inhibition at 10 µM read?
Answer: The inhibition at 10 µM was 98%.

Question: How did the inhibition at 10 µM turn out when `COc1cc(OC(=O)c2ccccc2F)ccc1-c1ccc2c(c1COC(=O)c1ccc(C)s1)N(C)C(=O)C(C)(C)N2` [Compound 14-44] was run?
Answer: The inhibition at 10 µM was 100%.

Question: Which inhibition at 10 µM does the source give for `COc1cc(OC(=O)c2cccnc2OC)ccc1-c1ccc2c(c1COc1cc(F)ccc1C)N(C)C(=O)C(C)(C)N2` [Compound 15-22] here?
Answer: Its inhibition at 10 µM is 100%.

Question: With `COc1cc(NC(=O)c2ccccc2Cl)ccc1-c1ccc2c(c1COc1cc(F)ccc1C)N(C)C(=O)C(C)(C)N2` [Compound 14-22] as the compound, how does the inhibition at 10 µM read?
Answer: The inhibition at 10 µM was 100%.

Question: Which inhibition at 10 µM does the source give for `C=CCc1ccccc1OCc1c(-c2ccc(F)cc2OC)ccc2c1N(C)C(=O)C(C)(C)N2` [Compound 3-17] here?
Answer: Its inhibition at 10 µM is 100%.

Question: With `COC(=O)Oc1ccc(-c2ccc3c(c2COc2cc(F)ccc2C)N(C)C(=O)C(C)(C)N3)c(OC)c1` [Compound 14-35] as the compound, how does the inhibition at 10 µM read?
Answer: The inhibition at 10 µM was 93%.

Question: For `COc1ccc(C)cc1NCc1c(-c2ccc(F)cc2OC)ccc2c1N(C)C(=O)C(C)(C)N2` [Compound 4-5], which inhibition at 10 µM is on record?
Answer: The inhibition at 10 µM was 100%.

Question: With `COc1cc(OC(=O)c2cocn2)ccc1-c1ccc2c(c1COc1cc(F)ccc1C)N(C)C(=O)C(C)(C)N2` [Compound 15-11] as the compound, how does the inhibition at 10 µM read?
Answer: The inhibition at 10 µM was 100%.

Question: `COc1ccc([N+](=O)[O-])cc1OCc1c(-c2ccc(OC(=O)c3ccccc3C)cc2OC)ccc2c1N(C)C(=O)C(C)(C)N2` [Compound 5-22] was tested. Which inhibition at 10 µM did it give?
Answer: The inhibition at 10 µM was 99%.

Question: Which inhibition at 10 µM does the source give for `COc1cc(OC(=O)c2ccccc2C)ccc1-c1ccc2c(c1COc1cc(F)ccc1C)N(C)C(=O)C(C)(C)N2` [Compound 14-2] here?
Answer: Its inhibition at 10 µM is 100%.

Question: With `COc1ccc(C(=O)OCc2c(-c3ccc(OC(=O)c4ccccc4C)cc3OC)ccc3c2NC(=O)C(C)(C)N3)cc1` [Compound 1-4, 7-[2-Methoxy-4-(2-methylbenzoyloxy)phenyl]-8-(4-methoxybenzoyloxymethyl)-3,3-dimethyl-3,4-dihydro-1H-quinoxalin-2-one] as the compound, how does the inhibition at 10 µM read?
Answer: The inhibition at 10 µM was 91%.

Question: `COc1ccc([N+](=O)[O-])cc1OCc1c(-c2ccc(OC(=O)c3ccccc3C)cc2OC)ccc2c1NC(=O)C(C)(C)N2` [Compound 22, 7-[2-Methoxy-4-(2-methylbenzoyloxy)phenyl]-8-(2-methoxy-5-nitrophenoxymethyl)-3,3-dimethyl-3,4-dihydro-1H-quinoxalin-2-one] was tested. Which inhibition at 10 µM did it give?
Answer: The inhibition at 10 µM was 100%.

Question: Which inhibition at 10 µM does the source give for `COc1ccc(Cl)cc1-c1ccc2c(c1COc1cc(F)ccc1C)N(C)C(=O)C(C)(C)N2` [Compound 6-15] here?
Answer: The inhibition at 10 µM was 100%.

Question: Which inhibition at 10 µM does the source give for `COc1cc(OC(=O)c2ccccc2C)ccc1-c1ccc2c(c1CNc1cc(F)ccc1C)N(C)C(=O)C(C)(C)N2` [Compound 21-22, 8-(5-Fluoro-2-methylphenylaminomethyl)-7-[2-methoxy-4-(2-methylbenzoyloxy)phenyl]-1,3,3-trimethyl-3,4-dihydro-1H-quinoxalin-2-one] here?
Answer: Its inhibition at 10 µM is 100%.

Question: Which inhibition at 10 µM does the source give for `COc1cc(OC(=O)c2sccc2Cl)ccc1-c1ccc2c(c1COc1cc(F)ccc1C)N(C)C(=O)C(C)(C)N2` [Compound 15-17] here?
Answer: The inhibition at 10 µM was 95%.

Question: How did the inhibition at 10 µM turn out when `CCN1C(=O)C(C)(C)Nc2ccc(-c3cc(F)ccc3OC)c(COC(=O)c3ccc(C)cc3)c21` [Compound 5-18] was run?
Answer: Its inhibition at 10 µM is 100%.
